Measurements reported in patent US20250084087A1, “BICYCLIC HETEROCYCLES AS MRGPRX2 ANTAGONISTS” (Incyte Corporation, priority 2023, published 2025).

How the values were obtained:
Assay type in all cases: cell-based
MRGPRX2 [1] = target: T1, MRGPRX2 (Homo sapiens, UniProt Q96LB1); test: MRGPRX2 IP1 HTRF assay; design: host or cells: CHO-K1; settings: CHO-K1 cells stably expressing human MRGPRX2; IP1 accumulation; agonist Cortistatin 14 1 μM
T1 sequence (Q96LB1 1-330): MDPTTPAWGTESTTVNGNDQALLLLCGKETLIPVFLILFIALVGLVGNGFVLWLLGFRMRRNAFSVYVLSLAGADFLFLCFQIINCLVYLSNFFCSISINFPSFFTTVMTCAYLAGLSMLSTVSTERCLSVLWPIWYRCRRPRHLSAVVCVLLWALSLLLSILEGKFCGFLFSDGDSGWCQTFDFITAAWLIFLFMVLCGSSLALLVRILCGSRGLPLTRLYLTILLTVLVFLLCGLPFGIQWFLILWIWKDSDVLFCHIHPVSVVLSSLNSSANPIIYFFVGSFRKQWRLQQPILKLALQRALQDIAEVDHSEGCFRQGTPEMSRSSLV
Outline: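 CHO-K1 cells stably expressing human MRGPRX2, preincubated with compound 1 h at 37 °C, then stimulated with 1 μM Cortistatin 14 for 1 h. IP1 measured by HTRF against standard curve, normalized to DMSO and reference antagonist controls; IC50 from 3- or 4-parameter Hill fit.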

MRGPRX2 [2] = target: T1, MRGPRX2; test: MRGPRX2 FLIPR calcium mobilization assay; design: host or cells: CHO-K1; settings: CHO-K1 cells stably expressing human MRGPRX2; Ca2+ release; agonist Cortistatin-14 at EC80
Procedure: Example A. MRGPRX2 FLIPR Calcium Mobilization Assay
Chinese hamster ovary (CHO-K1) cells stably expressing human MRGPRX2 were purchased from Genescript (Piscataway, NJ). The cells were maintained in culture medium (Ham's F-12K) containing 10% (v/v) FBS, 200 μg/mL Zeocin, 100 units/mL penicillin G and 100 μg/mL streptomycin (Life Technologies, Carlsbad, CA). For the assay, the cells were harvested and resuspended with culture medium without Zeocin before plating at 8000 cells per well in 20 μL in 384-well black clear bottom cell culture plates (VWR, Radnor, PA). After 24 hour culture at 37° C. and 5% CO2, the cells were loaded with 20 μL/well of calcium dye (FLIPR Calcium 6 Assay Kit, Molecular Devices, San Jose, CA) diluted in loading buffer (1× Hank's Balanced Salt Solution (HBSS), 5 mM probenecid, 20 mM 4-(2-hydroxyethyl)-1-piperazineethanesulfonic acid (HEPES), pH 7.4, VWR, Radnor, PA) followed with 45 min. incubation at 37° C. and 40 min. at r.t. in the dark. Cells were then treated with the addition of 10 uL/well test compounds with a range of increasing concentrations diluted in the assay buffer (1×HBSS, 20 mM HEPES, pH 7.4, VWR, Radnor, PA) with FLIPR Penta (Molecular Devices. San Jose, CA) and incubated for 30 min. at r.t. Ca^2+ release was measured with FLIPR Penta with 10 seconds basal fluorescence measurement, then 12.5 μL of 5× agonist Cortistatin-14 (Tocris, Minneapolis, MN) at final concentration corresponding to the EC80 were added followed with continued fluorescence signal monitoring for an additional 110 seconds. The base line adjusted (median of first 10s base line) max value of the Relative Fluorescence Unit (RFU) was plotted against compound concentrations. Wells with no compound were served as the positive controls, and wells with high concentration of reference antagonist were used as negative controls. IC50 curves were globally fitted with 3- or 4-parameter Hill equation in a Genedata Screener (Genedata Basel, Switzerland).

MRGPRX2 [3] = target: T1, MRGPRX2; test: MRGPRX2 β-Arrestin recruitment assay (PathHunter); design: host or cells: CHO-K1 (PathHunter); settings: PathHunter CHO-K1 MRGPRX2 β-Arrestin cell line; agonist Cortistatin 14 0.25 μM
Outline: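 CHO-K1 PathHunter cells co-expressing ProLink-tagged MRGPRX2 and enzyme-acceptor-tagged β-arrestin were preincubated with compound 1 h at 37° C., then stimulated with cortistatin-14 (0.25 μM final) for 90 min. Enzyme-complementation luminescence read after 1 h detection; data normalized to DMSO and reference antagonist, IC50 from 3- or 4-parameter Hill fit.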

| SMILES | IC50 (MRGPRX2 [1]) | IC50 (MRGPRX2 [2]) | IC50 (MRGPRX2 [3]) |
| --- | --- | --- | --- |
| NS(=O)(=O)N1CCC(CNc2nc(Cl)cc3nc(C(F)(F)F)cn23)(c2ccccc2)CC1 [Example 5, 4-(((7-Chloro-2-(trifluoromethyl)imidazo[1,2-c]pyrimidin-5-yl)amino)methyl)-4-phenylpiperidine-1-sulfonamide] | 0.1 to 100 nM | 0.1 to 100 nM | – |
| Cc1cc(NCC2(c3ccccc3)CCN(C(N)=O)CC2)n2nc(C(F)(F)F)nc2n1 [Example 7, 4-(((5-Methyl-2-(trifluoromethyl)-[1,2,4]triazolo[1,5-a]pyrimidin-7-yl)amino)methyl)-4-phenylpiperidine-1-carboxamide] | 100 to 1000 nM | 0.1 to 100 nM | – |
| NC(=O)N1CC(CNc2cc(C(F)(F)F)nc3cc(C(F)(F)F)nn23)(n2cc(F)cn2)C1 [Example 10, 3-(((2,5-Bis(trifluoromethyl)pyrazolo[1,5-a]pyrimidin-7-yl)amino)methyl)-3-(4-fluoro-1H-pyrazol-1-yl)azetidine-1-carboxamide] | 0.1 to 100 nM | 0.1 to 100 nM | – |
| NS(=O)(=O)N1CC(CNc2cccc3nc(C(F)(F)F)nn23)(n2cc(F)cn2)C1 [Example 11, 3-(4-Fluoro-1H-pyrazol-1-yl)-3-(((2-(trifluoromethyl)-[1,2,4]triazolo[1,5-a]pyridin-5-yl)amino)methyl)azetidine-1-sulfonamide] | 0.1 to 100 nM | 0.1 to 100 nM | – |
| NC(=O)N1CC(CNc2cccc3nc(C(F)(F)F)nn23)(n2cc(F)cn2)C1 [Example 12, 3-(4-Fluoro-1H-pyrazol-1-yl)-3-(((2-(trifluoromethyl)-[1,2,4]triazolo[1,5-a]pyridin-5-yl)amino)methyl)azetidine-1-carboxamide] | 100 to 1000 nM | 0.1 to 100 nM | – |
| CNC(=O)N1CCC(CNc2cccc3nc(C(F)(F)F)nn23)(c2ccccc2)CC1 [Example 13, N-Methyl-4-phenyl-4-(((2-(trifluoromethyl)-[1,2,4]triazolo[1,5-a]pyridin-5-yl)amino)methyl)piperidine-1-carboxamide] | 0.1 to 100 nM | 0.1 to 100 nM | – |
| COC(=O)N1CCC(CNc2cc(C(F)(F)F)nc3cc(C(F)(F)F)nn23)(c2ccccc2)CC1 [Example 14, Methyl 4-(((2,5-bis(trifluoromethyl)pyrazolo[1,5-a]pyrimidin-7-yl)amino)methyl)-4-phenylpiperidine-1-carboxylate] | 100 to 1000 nM | 0.1 to 100 nM | – |
| CNC(=O)N1CCC(CNc2cc(C(F)(F)F)nc3cc(C(F)(F)F)nn23)(c2ccccc2)CC1 [Example 15, 4-(((2,5-Bis(trifluoromethyl)pyrazolo[1,5-a]pyrimidin-7-yl)amino)methyl)-N-methyl-4-phenylpiperidine-1-carboxamide] | 0.1 to 100 nM | 0.1 to 100 nM | – |
| NC(=O)N1CCC(CNc2cc(C(F)(F)F)nc3cc(C(F)(F)F)nn23)(c2ccccc2)CC1 [Example 16, 4-(((2,5-Bis(trifluoromethyl)pyrazolo[1,5-a]pyrimidin-7-yl)amino)methyl)-4-phenylpiperidine-1-carboxamide] | 0.1 to 100 nM | 0.1 to 100 nM | – |
| CN1CCC(CNc2cc(C(F)(F)F)nc3cc(C(F)(F)F)nn23)(c2ccccc2)CC1 [Example 17, N-((1-Methyl-4-phenylpiperidin-4-yl)methyl)-2,5-bis(trifluoromethyl)pyrazolo[1,5-a]pyrimidin-7-amine] | 0.1 to 100 nM | 0.1 to 100 nM | – |
| O=C(N1CCC(CNc2cccc3nc(C(F)(F)F)cn23)(c2ccccc2)CC1)N1CC(F)(F)C1 [Example 19, (3,3-Difluoroazetidin-1-yl)(4-phenyl-4-(((2-(trifluoromethyl)imidazo[1,2-a]pyridin-5-yl)amino)methyl)piperidin-1-yl)methanone] | 0.1 to 100 nM | 0.1 to 100 nM | – |
| NC(=O)N1CCC(CNc2cc(C(F)(F)F)nc3cc(Br)nn23)(c2ccc(F)cn2)CC1 [Example 22, 4-(((2-Bromo-5-(trifluoromethyl)pyrazolo[1,5-a]pyrimidin-7-yl)amino)methyl)-4-(5-fluoropyridin-2-yl)piperidine-1-carboxamide] | 0.1 to 100 nM | 0.1 to 100 nM | – |
| OCCN1CCC(CNc2cccc3nc(C(F)(F)F)cn23)(c2ccc(F)cn2)CC1 [Example 23, 2-(4-(5-Fluoropyridin-2-yl)-4-(((2-(trifluoromethyl)imidazo[1,2-a]pyridin-5-yl)amino)methyl)piperidin-1-yl)ethan-1-ol] | 100 to 1000 nM | 100 to 1000 nM | – |
| N#CCC(=O)N1CCC(CNc2cccc3nc(C(F)(F)F)cn23)(c2ccc(F)cn2)CC1 [Example 24, 3-(4-(5-Fluoropyridin-2-yl)-4-(((2-(trifluoromethyl)imidazo[1,2-a]pyridin-5-yl)amino)methyl)piperidin-1-yl)-3-oxopropanenitrile] | 100 to 1000 nM | 0.1 to 100 nM | – |
| CNC(=O)N1CCC(CNc2cccc3nc(C(F)(F)C(F)(F)F)cn23)(c2ccccc2)CC1 [Example 26, N-Methyl-4-(((2-(perfluoroethyl)imidazo[1,2-a]pyridin-5-yl)amino)methyl)-4-phenylpiperidine-1-carboxamide] | 0.1 to 100 nM | 0.1 to 100 nM | – |
| CN1CC[C@@H]1C(=O)N1CCC(CNc2cc(C(F)(F)F)nc3cc(C(F)(F)F)nn23)(c2ccc(F)cc2)CC1 [Example 50, (R)-(4-(((2,5-Bis(trifluoromethyl)pyrazolo[1,5-a]pyrimidin-7-yl)amino)methyl)-4-(4-fluorophenyl)piperidin-1-yl)(1-methylazetidin-2-yl)methanone] | – | 0.1 to 100 nM | 0.1 to 100 nM |
| O=C(CN1CCC1)N1CCC(CNc2cc(C(F)(F)F)nc3cc(Br)nn23)(c2ccc(F)cc2)CC1 [Example 60, 2-(Azetidin-1-yl)-1-(4-(((2-bromo-5-(trifluoromethyl)pyrazolo[1,5-a]pyrimidin-7-yl)amino)methyl)-4-(4-fluorophenyl)piperidin-1-yl)ethan-1-one] | – | 0.1 to 100 nM | 0.1 to 100 nM |
| O=C(NC1CC1)N1CC(CNc2cc(C(F)(F)F)nc3cc(C(F)F)nn23)(c2ccc(F)cc2)C1 [Example 63, N-Cyclopropyl-3-(((2-(difluoromethyl)-5-(trifluoromethyl)pyrazolo[1,5-a]pyrimidin-7-yl)amino)methyl)-3-(4-fluorophenyl)azetidine-1-carboxamide] | – | 0.1 to 100 nM | 0.1 to 100 nM |
| N#CCCNC1CCC(CNc2cc(C(F)(F)F)nc3cc(Br)nn23)(c2ccccc2)CC1 (centres unmarked) [Example 81, 3-((4-(((2-Bromo-5-(trifluoromethyl)pyrazolo[1,5-a]pyrimidin-7-yl)amino)methyl)-4-phenylcyclohexyl)amino)propanenitrile] | – | 0.1 to 100 nM | 0.1 to 100 nM |
| FC(F)(F)c1cc(NCC2(c3ccccc3)CC=CC2)n2nc(Br)cc2n1 [Example 82, 2-Bromo-N-((1-phenylcyclopent-3-en-1-yl)methyl)-5-(trifluoromethyl)pyrazolo[1,5-a]pyrimidin-7-amine] | – | 0.1 to 100 nM | 0.1 to 100 nM |
| CNC1CCC(CNc2cc(C(F)(F)F)nc3cc(Br)nn23)(c2ccccc2)CC1 (centres unmarked) [Example 83, 2-Bromo-N-((4-(methylamino)-1-phenylcyclohexyl)methyl)-5-(trifluoromethyl)pyrazolo[1,5-a]pyrimidin-7-amine] | – | 0.1 to 100 nM | 0.1 to 100 nM |
| CC(=O)N(C)C1CCC(CNc2cc(C(F)(F)F)nc3cc(Br)nn23)(c2ccccc2)CC1 (centres unmarked) [Example 85, N-(4-(((2-Bromo-5-(trifluoromethyl)pyrazolo[1,5-a]pyrimidin-7-yl)amino)methyl)-4-phenylcyclohexyl)-N-methylacetamide] | – | 0.1 to 100 nM | 0.1 to 100 nM |
